Assay [1] concerns Ixodes ricinus. Description: In vitro contact test with adult hard ticks (Ixodes ricinus). The note with it: read-out: acaricidal activity; for pest or weed control at 0.2 µg/cm2, 0.2 µg/cm2: dose 0.2 μg/cm^2, 48 h; for pest or weed control at 1 µg/cm2, 1 µg/cm2: dose 1 μg/cm^2, 48 h; for pest or weed control at 5 µg/cm2, 5 µg/cm2: dose 5 μg/cm^2, 48 h. The essentials: (§1)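 Adult R. sanguineus, I. ricinus, D. variabilis or A. americanum nymphs exposed in glass vials coated with compound from acetone (900 ppm gives 5 μg/cm^2). Held 48 h at room temperature (R. sanguineus) or 21° C., 85% rel. hum.; then heated at 45-50° C. ≤5 min, motionless or uncoordinated ticks scored dead/moribund.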

For assay [2], the system named is Ctenocephalides felis. As to the kind of experiment: Ctenocephalides felis in-vitro feeding test with fleas (CTECFE oral). The note with it: 48 hours, read-out: insecticidal feeding activity; for pest or weed control at 0.8 ppm: dose 0.8 ppm in citrated cattle blood; for pest or weed control at 4 ppm: dose 4 ppm in citrated cattle blood; for pest or weed control at 0.032 ppm: dose 0.032 ppm in citrated cattle blood; for pest or weed control at 0.16 ppm: dose 0.16 ppm in citrated cattle blood; for pest or weed control at 0.0064 ppm: dose 0.0064 ppm in citrated cattle blood. The essentials:
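About 20 unfed adult cat fleas fed through parafilm on citrated cattle blood containing test substance (DMSO solution diluted in blood), held at about 37° C. Kill rate scored after 48 hours, 100% meaning all fleas dead.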

Assay [3] has as its system Ctenocephalides felis. As to the kind of experiment: Topical treatment in-vivo test with cat flea on rats. The note with it: topical spot-on, 10 mg/kg. The method, then: Topical Treatment In-Vivo Test with American Dog Tick Nymph and Cat Flea on Rats
Type of study and overall study design: The method is a randomized non-blinded efficacy study in accordance with European animal welfare requirements. Rats (Rattus norvegicus) were randomized based on pre-treatment flea counts. The efficacy of treatment was determined by comparison of the flea and tick counts of different treatment groups versus the placebo-treated control group. The experimental unit was the individual study animal.
Method and route of administration: The compound was applied in a suitable solvent and carrier (more specifically, added to the following mixture: 33.3% by weight propylene carbonate, […] N-methylpyrrolidone, 0.1% by weight BHA, 0.05% by weight BHT) considering the individual body weight as topical spot-on between the shoulder blades directly onto the skin.
(§2) Experimental infestation: On the day of treatment and weekly thereafter, 30 ticks (D. variabilis nymphs) were released onto the back of each rat, and 30 fleas (C. felis) were released onto the back of each rat 24 h later.
Tick and Flea counting: Rats were thoroughly examined and ticks and fleas were manually removed 48 h (+4 h) after tick infestation and 24 h after flea infestation. Live fleas and live attached engorged ticks were counted. In non-evident cases, engorgement status was evaluated by squeezing the tick on a filter paper to find traces of blood as sign for engorgement.

In assay [4] the test system is Dermacentor variabilis. As to the kind of experiment: In vitro contact test with adult hard ticks (Dermacentor variabilis). The note with it: read-out: acaricidal activity; for pest or weed control at 0.2 µg/cm2, 0.2 µg/cm2: dose 0.2 μg/cm^2, 48 h; for pest or weed control at 1 µg/cm2, 1 µg/cm2: dose 1 μg/cm^2, 48 h. The essentials: as §1
Assay [5] has as its system Dermacentor variabilis. Description: Systemic treatment in-vivo test with American dog tick nymph on rats. The note with it: Dermacentor variabilis, ip, intraperitoneal injection. As for the experimental part:
Systemic Treatment In-Vivo Test with American Dog Tick Nymph and Cat Flea on Rats
Type of study and overall study design: The method is a randomized non-blinded efficacy study in accordance with European animal welfare requirements. Rats (Rattus norvegicus) were randomized based on pre-treatment flea counts. The efficacy of treatment was determined by comparison of the flea and tick counts of different treatment groups versus the placebo-treated control group. The experimental unit was the individual study animal. Method and route of administration: The compound was applied in a suitable solvent and carrier (more specifically, added to glycerol formal; in case of poorly soluble compounds, a solvent mixture with up to 25% by volume of N-methyl pyrrolidone may be used.) considering the individual body weight as an intraperitoneal injection.
as §2
Tick and Flea counting: Rats were thoroughly examined and ticks and fleas were manually removed 48 h (±4 h) after tick infestation and 24 h after flea infestation. Live fleas and live attached engorged ticks were counted. In non-evident cases, engorgement status was evaluated by squeezing the tick on a filter paper to find traces of blood as sign for engorgement.

Where [6] appears, read: SD 2, read-out: Geometric mean percent reduction in live tick (Dermacentor variabilis) counts compared to untreated control rats.
[7] abbreviates: SD 9, read-out: Geometric mean percent reduction in live tick (Dermacentor variabilis) counts compared to untreated control rats.
The mark [8] stands for this setting: SD 16, read-out: Geometric mean percent reduction in live tick (Dermacentor variabilis) counts compared to untreated control rats.
[9] abbreviates: SD 23, read-out: Geometric mean percent reduction in live tick (Dermacentor variabilis) counts compared to untreated control rats.
The mark [10] stands for this setting: SD 30, read-out: Geometric mean percent reduction in live tick (Dermacentor variabilis) counts compared to untreated control rats.

Where two headings read alike, the source gives them in different places.

As for `CN(C(=O)c1ccc(F)cc1)c1cccc(C(=O)Nc2c(I)cc(C(F)(C(F)(F)F)C(F)(F)F)cc2C(F)(F)F)c1F` [Compound 24], the pest or weed control at 0.2 µg/cm2, 0.2 µg/cm2 in assay [1] is 90%. The pest or weed control at 1 µg/cm2, 1 µg/cm2 in assay [1] came out at 90%. For the same compound, the pest or weed control at 5 µg/cm2, 5 µg/cm2 in assay [1] was found to be 90%. Also, in assay [2], the pest or weed control at 0.8 ppm stood at 95%. For the same compound, the pest or weed control at 4 ppm in assay [2] worked out at 95%. The “Geometric mean percent reduction in live flea (Ctenocephalides felis) counts compared to untreated control rats” value in assay [3] (SD 2) worked out at 100%; in assay [3] (SD 9), 99%; in assay [3] (SD 16), 97%; in assay [3] (SD 23) it was 96%; in assay [3] (SD 30), 77%.
Turning to `CN(C(=O)c1ccc(F)cc1)c1cccc(C(=O)Nc2c(I)cc(C(F)(C(F)(F)F)C(F)(F)F)cc2OC(F)(F)F)c1F` [Compound 74], in assay [4], the pest or weed control at 0.2 µg/cm2, 0.2 µg/cm2 came out at 90% and the pest or weed control at 1 µg/cm2, 1 µg/cm2 was 90%. In addition, in assay [1], the pest or weed control at 1 µg/cm2, 1 µg/cm2 was determined as 90% and the pest or weed control at 5 µg/cm2, 5 µg/cm2 stood at 90%. Further, in assay [2], the pest or weed control at 0.032 ppm came out at 95%, the pest or weed control at 0.16 ppm amounted to 95%, the pest or weed control at 0.8 ppm came out at 95% and the pest or weed control at 4 ppm amounted to 95%. Besides, the inhibition in vivo at 10 mg/kg in assay [5] (setting [6]) is 100%. Further, the inhibition in vivo at 10 mg/kg in assay [5] (setting [7]) amounted to 100%. Also, the inhibition in vivo at 10 mg/kg in assay [5] (setting [8]) came out at 90%. Further, the inhibition in vivo at 10 mg/kg in assay [5] (setting [9]) was 89%. In assay [5] (setting [10]), the inhibition in vivo at 10 mg/kg was 78%.
As for `CN(C(=O)c1ccc(C(F)(F)F)nc1)c1cccc(C(=O)Nc2c(I)cc(C(F)(C(F)(F)F)C(F)(F)F)cc2C(F)(F)F)c1F` [Compound 66, N-(2-fluoro-3-((2-iodo-4-(perfluoropropan-2-yl)-6-(trifluoromethyl)phenyl)carbamoyl)phenyl)-N-methyl-6-(trifluoromethyl)nicotinamide], in assay [4], the pest or weed control at 1 µg/cm2, 1 µg/cm2 came out at 90%. Moreover, in assay [2], the pest or weed control at 0.16 ppm is 95%. Also, in assay [2], the pest or weed control at 0.8 ppm was 95%. In addition, the pest or weed control at 4 ppm in assay [2] is 95%. The inhibition in vivo at 10 mg/kg came out at 100% in assay [5] (setting [6]); 100% in assay [5] (setting [7]); 100% in assay [5] (setting [8]); 100% in assay [5] (setting [9]); 95% in assay [5] (setting [10]).
As to `CN(C(=O)c1ccc(F)cc1)c1cccc(C(=O)Nc2c(I)cc(C(F)(C(F)(F)F)C(F)(F)C(F)(F)F)cc2C(F)(F)F)c1F` (centres unmarked) [Compound 37], in assay [4], the pest or weed control at 0.2 µg/cm2, 0.2 µg/cm2 was found to be 90% and the pest or weed control at 1 µg/cm2, 1 µg/cm2 worked out at 90%. In addition, in assay [2], the pest or weed control at 0.032 ppm was found to be 95%, the pest or weed control at 0.16 ppm was 95%, the pest or weed control at 0.8 ppm amounted to 95% and the pest or weed control at 4 ppm worked out at 95%. Besides, the inhibition in vivo at 10 mg/kg in assay [5] (setting [6]) worked out at 100%. For the same compound, in assay [5] (setting [7]), the inhibition in vivo at 10 mg/kg amounted to 100%. In assay [5] (setting [8]), the inhibition in vivo at 10 mg/kg was 99%. Moreover, the inhibition in vivo at 10 mg/kg in assay [5] (setting [9]) was 99%. The inhibition in vivo at 10 mg/kg in assay [5] (setting [10]) was found to be 80%.
Turning to `CN(C(=O)c1ccc(C(F)(F)F)nc1)c1cccc(C(=O)Nc2c(I)cc(C(F)(C(F)(F)F)C(F)(F)C(F)(F)F)cc2C(F)(F)F)c1F` (centres unmarked) [Compound 119], in assay [4], the pest or weed control at 0.2 µg/cm2, 0.2 µg/cm2 was determined as 90% and the pest or weed control at 1 µg/cm2, 1 µg/cm2 amounted to 90%. In assay [2], the pest or weed control at 0.032 ppm amounted to 95%, the pest or weed control at 0.16 ppm is 95%, the pest or weed control at 0.8 ppm was 95% and the pest or weed control at 4 ppm worked out at 95%. Besides, in assay [5] (setting [6]), the inhibition in vivo at 2 mg/kg is 100% and the inhibition in vivo at 10 mg/kg was 100%. Further, in assay [5] (setting [7]), the inhibition in vivo at 2 mg/kg is 96% and the inhibition in vivo at 10 mg/kg was found to be 100%. Also, in assay [5] (setting [8]), the inhibition in vivo at 2 mg/kg stood at 63% and the inhibition in vivo at 10 mg/kg is 100%. In addition, in assay [5] (setting [9]), the inhibition in vivo at 2 mg/kg stood at 1% and the inhibition in vivo at 10 mg/kg is 89%. Also, in assay [5] (setting [10]), the inhibition in vivo at 2 mg/kg is 61% and the inhibition in vivo at 10 mg/kg turned out to be 61%.
`CN(C(=O)c1ccc(F)cc1)c1cccc(C(=O)Nc2c(I)cc(C(F)(C(F)(F)F)C(F)(F)C(F)(F)F)cc2OC(F)F)c1F` (centres unmarked) [Compound 103]: in assay [4] (dose 0.04 μg/cm^2, 48 h), the pest or weed control at 0.04 µg/cm2, 0.04 µg/cm2 was 90%. Besides, in assay [4], the pest or weed control at 0.2 µg/cm2, 0.2 µg/cm2 amounted to 90% and the pest or weed control at 1 µg/cm2, 1 µg/cm2 turned out to be 90%. In assay [1], the pest or weed control at 0.2 µg/cm2, 0.2 µg/cm2 turned out to be 90% and the pest or weed control at 5 µg/cm2, 5 µg/cm2 is 90%. For the same compound, in assay [2], the pest or weed control at 0.0064 ppm was found to be 95%, the pest or weed control at 0.032 ppm was 95%, the pest or weed control at 0.16 ppm was found to be 95% and the pest or weed control at 0.8 ppm is 95%. The pest or weed control at 4 ppm in assay [2] was determined as 95%. Besides, the inhibition in vivo at 10 mg/kg in assay [5] (setting [6]) was 100%. Also, the inhibition in vivo at 10 mg/kg in assay [5] (setting [7]) is 100%. For the same compound, the inhibition in vivo at 10 mg/kg in assay [5] (setting [8]) was found to be 74%. For the same compound, the inhibition in vivo at 10 mg/kg in assay [5] (setting [9]) stood at 43%.
On to `CN(C(=O)c1ccc(F)nc1)c1cccc(C(=O)Nc2c(I)cc(C(F)(C(F)(F)F)C(F)(F)F)cc2C(F)(F)F)c1F` [Compound 115, 6-fluoro-N-(2-fluoro-3-((2-iodo-4-(perfluoropropan-2-yl)-6-(trifluoromethyl)phenyl)carbamoyl)phenyl)-N-methylnicotinamide], for which, in assay [4], the pest or weed control at 0.2 µg/cm2, 0.2 µg/cm2 is 90% and the pest or weed control at 1 µg/cm2, 1 µg/cm2 was 90%. The pest or weed control at 5 µg/cm2, 5 µg/cm2 in assay [1] came out at 90%. For the same compound, in assay [2], the pest or weed control at 0.0064 ppm stood at 95%, the pest or weed control at 0.032 ppm is 95%, the pest or weed control at 0.16 ppm came to 95% and the pest or weed control at 0.8 ppm was 95%. Besides, the pest or weed control at 4 ppm in assay [2] worked out at 95%. Besides, in assay [5] (setting [6]), the inhibition in vivo at 10 mg/kg is 100%. Further, the inhibition in vivo at 10 mg/kg in assay [5] (setting [7]) is 99%. Also, the inhibition in vivo at 10 mg/kg in assay [5] (setting [8]) was determined as 86%. Also, the inhibition in vivo at 10 mg/kg in assay [5] (setting [9]) was 46%. Also, the inhibition in vivo at 10 mg/kg in assay [5] (setting [10]) was determined as 17%.
